The record followed here is US12329799B2, “Peptidyl inhibitors of calcineurin-NFAT interaction” (Ohio State Innovation Foundation, priority 2018, dated 2025).

Where two headings read alike, the source gives them in different places. Positions of bridges follow the written chain, without caps; N, C: chain ends. Non-standard residues stand in square brackets, D forms with d. Residues, ends and D or L forms follow the SMILES beside them. Chains are numbered I, II in the order given. *: point of attachment. FITC = O=C1OC2(c3ccc(O)cc3Oc3cc(O)ccc32)c2ccc(NC(=S)*)cc21; Benzoyl(2,3,4,5,6-F5) = O=C(c1c(F)c(F)c(F)c(F)c1F)*; Benzoyl(2,3-Cl2) = O=C(c1cccc(Cl)c1Cl)*; Phe(4-F) = N[C@@H](Cc1ccc(F)cc1)C(=O)O; 2Nal = N[C@@H](Cc1ccc2ccccc2c1)C(=O)O; Val(3-OH) = CC(C)(O)[C@H](N)C(=O)O; X4 = O=C(c1cc(F)c(F)c(F)c1F)*; Chg = N[C@H](C(=O)O)C1CCCCC1; Tle = CC(C)(C)[C@H](N)C(=O)O; X6 = O=C(c1ccc(Br)c(Cl)c1)*; X5 = Cc1ccc(C(=O)*)c(F)c1F; X1 = O=C(c1ccnc(Cl)c1Cl)*; AEEA = NCCOCCOCC(=O)O; βAla = NCCC(=O)O

In one data set the target is T1, Calcineurin (GST-CN) (Homo sapiens, UniProt Q08209).
T1 construct: made in house; host or cells: E. coli BL21
T1 sequence (Q08209 2-347 limits assumed): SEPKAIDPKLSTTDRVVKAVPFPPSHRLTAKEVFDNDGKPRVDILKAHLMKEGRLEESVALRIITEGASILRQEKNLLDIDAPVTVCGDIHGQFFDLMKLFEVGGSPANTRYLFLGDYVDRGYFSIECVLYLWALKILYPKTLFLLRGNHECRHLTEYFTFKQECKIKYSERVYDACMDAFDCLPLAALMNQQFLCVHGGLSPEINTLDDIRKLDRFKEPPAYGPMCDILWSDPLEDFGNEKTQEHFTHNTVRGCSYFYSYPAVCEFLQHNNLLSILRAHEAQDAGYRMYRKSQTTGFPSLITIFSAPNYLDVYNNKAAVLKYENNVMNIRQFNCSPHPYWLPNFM
The experiment in a line: Direct binding of FITC-labeled peptides to CN by fluorescence anisotropy/polarization. Conditions: for Kd: Table 5, acyl-ZIZITGPHEEYK(FITC)-NH2 peptides, FA. Here is the method:
To facilitate concentration determination and binding analysis by fluorescence anisotropy (FA), a dipeptide Tyr-Lys was added to the C-terminus of ZIZIT (SEQ ID NO:1) and the lysine side chain was labeled with fluorescein isothiocyanate (FITC). The resulting peptide,
Fluorescence Polarization. Fluorescence polarization (FP) experiments were carried out to measure binding affinity in both direct and competitive binding experiments using GST-CN and peptides prepared as mentioned previously. For direct binding, 50 nM FITC-labeled peptide was prepared in PBS, pH 7.4 containing 5 mM DTT and 0.01% Triton-X100 and then added to GST-CN diluted in PBS containing 0.01% Triton-X100. Solutions were incubated for 1 h at RT with gentle mixing and then pipetted into black 384-well microplates. Fluorescence polarization was measured on a TECAN Infinite M1000 plate reader and titration curves were fitted using both KaelidaGraph v 3.6 and GraphPad PRISM to the equation:
[formula] • where FP is the measured fluorescence polarization, Amin is the minimum FP value, Amax is the maximum FP signal, Qb is the quantum yield of the bound fluorophore, Qf is the quantum yield of the free fluorophore, L is the ligand concentration, KD is the dissociation constant and x is the protein concentration.
In general terms: Polarisation of emitted light reports the rotation of a fluorescent probe.

Another data set is described as follows: Serum stability assay. Format: in vitro ADME. As to conditions: 37° C. How it is done:
Serum Stability Assay. Diluted human serum (25%) (H4522 human serum, Sigma) was centrifuged at 15,000 rpm for 10 min, and the supernatant was collected. A peptide stock solution was diluted into the supernatant to a final concentration of 5 μM and incubated at 37° C. At various time points (0-24 h), 200-μL aliquots were withdrawn and mixed with 100 μL of 15% trichloroacetic acid and incubated at 4° C. overnight. The final mixture was centrifuged at 15,000 rpm for 10 min in a microcentrifuge, and the supernatant was analyzed by reversed-phase HPLC equipped with a C18 column. The amount of remaining peptide (%) was determined by integrating the area underneath the peptide peak (monitored at 214 nm) and comparing with that from the peptide at time 0.

Data set [1] is described as follows: Aqueous solubility (turbidity at 780 nm). The class given is physicochemical. How it is done:
The peptide was serially diluted from a DMSO stock into PBS (pH 7.4) containing 5% DMSO and the optical density of the resulting solutions were measured at 780 nm.
Solubility. Peptides were diluted from a DMSO stock into PBS, pH 7.4 and then serially diluted in identical buffer to standardize DMSO concentration in clear, 96-well plates. The solutions were allowed to stand for 1 h at RT without mixing and then turbidity was measured at 780 nm using a Tecan Infinite M1000 plate reader.

A further data set concerns Caco-2 cell monolayers. Description: Caco-2 permeability assay. Format: in vitro ADME. How it is done:
Caco-2 permeability assay. To assay the permeability of test compounds by Caco-2 cell model, Caco-2 cells were cultured to confluency before being trypsinized and seeded onto filter transwell inserts at a density of 30,000 cells/well in DMEM medium. Cells were cultured in a humidified atmosphere with 5% CO2 at 37° C. After overnight attachment, cell medium was replaced with fresh medium at both apical and basolateral sides every other day. The cell monolayers are ready for the assay 20 days post seeding. […] The dosing solution at 10 μM was obtained by diluting 10 mM stock solution in HBSS medium (pH 7.4, 25 mM HEPES) freshly before the assay. Terfenadine (25 ng/mL) and Tolbutamide (50 ng/mL) were added into dosing solution as internal standards. […] The culture medium from either the basolateral side (plate B) or apical side (plate A) were aspirated and then rinsed with HBSS medium once. Afterwards, the dosing medium was added to either basolateral or apical side. Following the incubation, 100 microliter samples from both sides were harvested at time 0 and time 90 min. Samples were quenched with acetonitrile/methanol (1:1 v/v), centrifuged, and analyzed on a Shimadzu reversed-phase HPLC and Sciex API4500 Q trap instrument.
Permeability parameters were calculated using the following equations and shown in Table 10: Papp=(Conc.receiver,90 min*Volumereceiver)/(Time*Membrane Area*Conc.donor,0 min) Efflux Ratio=Papp[B to A]/Papp[A to B]
On the technique in general: Caco-2 monolayers are a common model of the intestinal barrier.

For `CC[C@H](C)[C@H](NC(=O)[C@@H](NC(=O)c1cccc(Cl)c1Cl)C(C)(C)C)C(=O)N[C@H](C(=O)N[C@H](C(=O)N[C@H](C(=O)NCCOCCOCC(=O)N[C@@H](CCCCNC(=S)Nc1ccc2c(c1)C(=O)OC21c2ccc(O)cc2Oc2cc(O)ccc21)C(N)=O)[C@@H](C)O)[C@@H](C)CC)C(C)(C)C` [Peptide 12, Dcb-ZIZIT-miniPEG-Lys (FITC)] ({Benzoyl(2,3-Cl2)}-[Tle]I[Tle]IT[AEEA]K(FITC)-NH2; C-terminus assumed), the “decrease in binding affinity on removal of C-terminal pentapeptide (GPHEE)” value at Calcineurin (GST-CN) (peptide 12 versus peptide 9) is reported as 17 fold.
As a reminder, the Kd is the constant that tells how readily two partners part at equilibrium. As for `CC[C@H](C)[C@H](NC(=O)[C@@H](NC(=O)c1ccc(C)c(F)c1F)C(C)(C)C)C(=O)N[C@H](C(=O)N[C@H](C(=O)N[C@H](C(=O)NCC(=O)N1CCC[C@H]1C(=O)N[C@@H](Cc1c[nH]cn1)C(=O)N[C@@H](CCC(=O)O)C(=O)N[C@@H](CCC(=O)O)C(=O)N[C@@H](Cc1ccc(O)cc1)C(=O)N[C@@H](CCCCNC(=S)Nc1ccc2c(c1)C(=O)OC21c2ccc(O)cc2Oc2cc(O)ccc21)C(N)=O)[C@@H](C)O)[C@@H](C)CC)C(C)(C)C` [Peptide 8] (X5-[Tle]I[Tle]ITGPHEEYK(FITC)-NH2), the Kd at Calcineurin (GST-CN) (read-out: KD) lay within 32 to 189 nM.
Take “VIVIT: VIVIT (SEQ ID NO: 2) peptide, a CNBM blocking NFAT (Description: CN binding motif)”: in the data set “Serum stability assay”, the “half-life in human serum” value is reported as approximately 1 h and the “time to complete degradation in human serum” value is reported as not above 6 h.
In the case of `CC[C@H](C)[C@H](NC(=O)[C@@H](NC(=O)c1cccc(Cl)c1Cl)C(C)(C)C)C(=O)N[C@H](C(=O)N[C@H](C(=O)N[C@H](C(=O)NCC(=O)N1CCC[C@H]1C(=O)N[C@@H](Cc1c[nH]cn1)C(=O)N[C@@H](CCC(=O)O)C(=O)N[C@@H](CCC(=O)O)C(=O)N[C@@H](Cc1ccc(O)cc1)C(=O)N[C@@H](CCCCNC(=S)Nc1ccc2c(c1)C(=O)OC21c2ccc(O)cc2Oc2cc(O)ccc21)C(N)=O)[C@@H](C)O)[C@@H](C)CC)C(C)(C)C` [Peptide 9] ({Benzoyl(2,3-Cl2)}-[Tle]I[Tle]ITGPHEEYK(FITC)-NH2), the Kd at Calcineurin (GST-CN) (KD (nM)) lay within 32 to 189 nM.
In the case of `CC[C@H](C)[C@H](NC(=O)[C@@H](NC(=O)[C@@H](NC(=O)[C@@H](NC(=O)c1ccnc(Cl)c1Cl)C(C)(C)C)C1CCCCC1)C(C)(C)O)C(=O)N[C@H](C(=O)N[C@@H](CCC(N)=O)C(=O)N[C@@H](Cc1c[nH]cn1)C(=O)N[C@H](CC(C)C)C(=O)N[C@@H](CO)C(=O)NCCC(=O)N[C@@H](CCCCNC(=O)CC[C@@H]1NC(=O)[C@@H](CCCNC(=N)N)NC(=O)[C@H](CCCNC(=N)N)NC(=O)[C@@H](CCCNC(=N)N)NC(=O)[C@H](CCCNC(=N)N)NC(=O)[C@H](Cc2ccc3ccccc3c2)NC(=O)[C@@H](Cc2ccccc2)NC1=O)C(N)=O)[C@@H](C)O` [Compound 44, (DCNA)-Tle-Chg-Bhv-Ile-Thr-Gln-His-(D-Leu)-Ser-βAla-Lys{[cyclo-(Gln-(D-Arg)-Arg-(D-Arg)-Arg-(2-Nal)-(D-Phe)]}-NH2] (I: X1-[Tle][Chg][Val(3-OH)]ITQH[dL]S[βAla]K-NH2 / II: cyclo([2Nal]R[dR]R[dR]E[dF]); amide I:11-II:6 (inferred); ring closure inferred), the “solubility relative to CNI103” value in data set [1] is recorded as “less soluble”.
Regarding `CC[C@H](C)[C@H](NC(=O)[C@@H](NC(=O)c1ccc(Br)c(Cl)c1)C(C)(C)C)C(=O)N[C@H](C(=O)N[C@H](C(=O)N[C@H](C(=O)NCC(=O)N1CCC[C@H]1C(=O)N[C@@H](Cc1c[nH]cn1)C(=O)N[C@@H](CCC(=O)O)C(=O)N[C@@H](CCC(=O)O)C(=O)N[C@@H](Cc1ccc(O)cc1)C(=O)N[C@@H](CCCCNC(=S)Nc1ccc2c(c1)C(=O)OC21c2ccc(O)cc2Oc2cc(O)ccc21)C(N)=O)[C@@H](C)O)[C@@H](C)CC)C(C)(C)C` [Peptide 10] (X6-[Tle]I[Tle]ITGPHEEYK(FITC)-NH2), at Calcineurin (GST-CN) (read-out: KD), the Kd is 32 to 189 nM.
For the compound `CC[C@H](C)[C@H](NC(=O)[C@@H](NC(=O)c1cccc(Cl)c1Cl)C(C)(C)C)C(=O)N[C@H](C(=O)N[C@H](C(=O)N[C@H](C(=O)N[C@@H](CCC(N)=O)C(=O)N[C@@H](Cc1c[nH]cn1)C(=O)N[C@H](CC(C)C)C(=O)N[C@@H](Cc1c[nH]cn1)C(=O)NCCC(=O)N[C@@H](CCCCNC(=S)Nc1ccc2c(c1)C(=O)OC21c2ccc(O)cc2Oc2cc(O)ccc21)C(N)=O)[C@@H](C)O)[C@@H](C)CC)C(C)(C)C` [Peptide 15, Dcb-ZIZIT-Gln-His-leu-His-βAla-Lys (FITC)] ({Benzoyl(2,3-Cl2)}-[Tle]I[Tle]ITQH[dL]H[βAla]K(FITC)-NH2; C-terminus assumed), the “aqueous solubility (qualitative)” value in data set [1] is recorded as “lower solubility”.
With `CC(C)CN(C[C@@H](O)[C@H](Cc1ccccc1)NC(=O)O[C@H]1CCOC1)S(=O)(=O)c1ccc(N)cc1` [Amprenavir, reference compound], the “Pgp Substrate” value in the data set on Caco-2 cell monolayers is on record as “Yes”.
Regarding `CC[C@H](C)[C@H](NC(=O)[C@@H](NC(=O)c1cccc(Cl)c1Cl)C(C)(C)C)C(=O)N[C@H](C(=O)N[C@H](C(=O)N[C@H](C(=O)N[C@@H](CCC(N)=O)C(=O)N[C@@H](Cc1c[nH]cn1)C(=O)N[C@H](CC(C)C)C(=O)N[C@@H](CO)C(=O)NCCC(=O)N[C@@H](CCCCNC(=S)Nc1ccc2c(c1)C(=O)OC21c2ccc(O)cc2Oc2cc(O)ccc21)C(N)=O)[C@@H](C)O)[C@@H](C)CC)C(C)(C)C` [Peptide 14, Dcb-ZIZIT-Gln-His-leu-Ser-βAla-Lys (FITC)] ({Benzoyl(2,3-Cl2)}-[Tle]I[Tle]ITQH[dL]S[βAla]K(FITC)-NH2; C-terminus assumed), in data set [1], the “aqueous solubility (qualitative)” value is “good aqueous solubility”.
Regarding `CC[C@H](C)[C@H](NC(=O)[C@@H](NC(=O)c1cccc(Cl)c1Cl)C(C)(C)C)C(=O)N[C@H](C(=O)N[C@H](C(=O)N[C@H](C(=O)N[C@@H](Cc1ccc(O)cc1)C(=O)N[C@H](CCC(=O)O)C(=O)N[C@@H](Cc1ccc(F)cc1)C(=O)NCC(=O)NCCC(=O)N[C@@H](CCCCNC(=S)Nc1ccc2c(c1)C(=O)OC21c2ccc(O)cc2Oc2cc(O)ccc21)C(N)=O)[C@@H](C)O)[C@@H](C)CC)C(C)(C)C` [Peptide 13, Dcb-ZIZIT-Tyr-glu-Fpa-Gly-βAla-Lys (FITC)] ({Benzoyl(2,3-Cl2)}-[Tle]I[Tle]ITY[dE][Phe(4-F)]G[βAla]K(FITC)-NH2; C-terminus assumed), in data set [1], the “aqueous solubility (qualitative)” value is reported as “good aqueous solubility”.
In the case of `CC[C@H](C)[C@H](NC(=O)[C@@H](NC(=O)c1c(F)c(F)c(F)c(F)c1F)C(C)(C)C)C(=O)N[C@H](C(=O)N[C@H](C(=O)N[C@H](C(=O)NCC(=O)N1CCC[C@H]1C(=O)N[C@@H](Cc1c[nH]cn1)C(=O)N[C@@H](CCC(=O)O)C(=O)N[C@@H](CCC(=O)O)C(=O)N[C@@H](Cc1ccc(O)cc1)C(=O)N[C@@H](CCCCNC(=S)Nc1ccc2c(c1)C(=O)OC21c2ccc(O)cc2Oc2cc(O)ccc21)C(N)=O)[C@@H](C)O)[C@@H](C)CC)C(C)(C)C` [Peptide 11] ({Benzoyl(2,3,4,5,6-F5)}-[Tle]I[Tle]ITGPHEEYK(FITC)-NH2), at Calcineurin (GST-CN) (read-out: KD), the Kd is 32 to 189 nM.
In the case of `CC[C@H](C)[C@H](NC(=O)[C@@H](NC(=O)c1cc(F)c(F)c(F)c1F)C(C)(C)C)C(=O)N[C@H](C(=O)N[C@H](C(=O)N[C@H](C(=O)NCC(=O)N1CCC[C@H]1C(=O)N[C@@H](Cc1c[nH]cn1)C(=O)N[C@@H](CCC(=O)O)C(=O)N[C@@H](CCC(=O)O)C(=O)N[C@@H](Cc1ccc(O)cc1)C(=O)N[C@@H](CCCCNC(=S)Nc1ccc2c(c1)C(=O)OC21c2ccc(O)cc2Oc2cc(O)ccc21)C(N)=O)[C@@H](C)O)[C@@H](C)CC)C(C)(C)C` [Peptide 7] (X4-[Tle]I[Tle]ITGPHEEYK(FITC)-NH2), the dissociation constant Kd at Calcineurin (GST-CN) (KD (nM)) was in the range of 32 to 189 nM.
